We go through 19 compounds from patent publication US12018021B2 (UCB Biopharma SRL, priority 2018, dated 2024).

IgE-Tb / FcεRIα-Y131A-AF488, sequence (P01854 1-427 limits assumed, stated change not applied): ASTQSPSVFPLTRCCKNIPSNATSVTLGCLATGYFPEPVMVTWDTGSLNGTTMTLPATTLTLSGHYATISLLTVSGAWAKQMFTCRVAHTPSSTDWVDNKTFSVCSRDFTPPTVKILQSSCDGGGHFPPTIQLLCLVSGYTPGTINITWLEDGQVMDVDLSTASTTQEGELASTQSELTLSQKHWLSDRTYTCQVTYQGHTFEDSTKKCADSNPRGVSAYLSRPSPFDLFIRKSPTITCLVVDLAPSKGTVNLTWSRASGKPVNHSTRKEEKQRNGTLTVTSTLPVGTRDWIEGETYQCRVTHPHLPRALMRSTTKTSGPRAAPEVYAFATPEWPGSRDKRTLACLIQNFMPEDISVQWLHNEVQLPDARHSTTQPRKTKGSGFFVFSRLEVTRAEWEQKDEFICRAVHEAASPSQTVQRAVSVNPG

This assay addresses IgE-Tb / FcεRIα-Y131A-AF488 (Homo sapiens, UniProt P01854). The assay is described as follows: IgE-Tb / FcεRIα-Y131A-AF488 FRET assay (protocol for examples 1 to 233). As to conditions: examples 1 to 233: 5 nM IgE-Tb, 25 nM FcεRIα-Y131A-AF488, incubated 2 hours at room temperature; read-out: Y131A FRET IC50 range. It is filed as binding. The method, boiled down:
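TR-FRET displacement with 5 nM IgE-Tb and 25 nM FcεRIα-Y131A-AF488 (final), 10-point 3-fold compound dilutions from typically 10 μM top, 2% DMSO, 2 h at room temperature. Excitation 330 nm, 520/495 nm emission ratio; MIN set with 200 nM unlabelled FcεRIα. IC50 from four-parameter logistic fit of percent inhibition.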
For `O=C(NCC1CC1)c1c(NC(=O)C2CC2)sc2c1C[C@@H](n1ccnc1Nc1cccnc1)CC2` [Example 127, (5S)-2-(Cyclopropanecarbonylamino)-N-(cyclopropylmethyl)-5-[2-(3-pyridylamino)imidazol-1-yl]-4,5,6,7-tetrahydrobenzothiophene-3-carboxamide], the IC50 – broadly, the point on the concentration scale where inhibition reaches its midpoint – was below 1000 nM.
`O=C(NCC1CC1)c1c(NC(=O)C2CC2)sc2c1C[C@@H](n1cnnc1NCC1CC1)CC2` [Example 130, (5S)-2-(Cyclopropanecarbonylamino)-N-(cyclopropylmethyl)-5-[3-(cyclopropylmethylamino)-1,2,4-triazol-4-yl]-4,5,6,7-tetrahydrobenzothiophene-3-carboxamide]: the IC50 is below 1000 nM.
Next, `Cc1cc(NC(=S)N[C@H]2CCc3sc(NC(=O)C4CC4)c(C(=O)NCC4CC4)c3C2)n(C)n1` [Example 131, (5S)-2-(Cyclopropanecarbonylamino)-N-(cyclopropylmethyl)-5-[(2,5-dimethylpyrazol-3-yl)carbamothioylamino]-4,5,6,7-tetrahydrobenzothiophene-3-carboxamide]: below 1000 nM; `O=C(NCC1CC1)c1c(NC(=O)C2CC2)sc2c1C[C@@H](n1cnnc1Nc1cncnc1)CC2` [Example 132, (5S)-2-(Cyclopropanecarbonylamino)-N-(cyclopropylmethyl)-5-[3-(pyrimidin-5-ylamino)-1,2,4-triazol-4-yl]-4,5,6,7-tetrahydrobenzothiophene-3-carboxamide]: below 1000 nM.
With `O=C(NCC1CC1)c1c(NC(=O)C2CC2)sc2c1C[C@@H](n1ccnc1NCC1CC1)CC2` [Example 133, (5S)-2-(Cyclopropanecarbonylamino)-N-(cyclopropylmethyl)-5-[2-(cyclopropylmethylamino)imidazol-1-yl]-4,5,6,7-tetrahydrobenzothiophene-3-carboxamide] the figure was below 1000 nM; with `CCNC1=NS(=O)(=O)N=C1NC1CCc2sc(NC(=O)C3CC3)c(C(=O)NCC3CC3)c2C1` (stereo not shown) [Example 134, 2-(Cyclopropanecarbonylamino)-N-(cyclopropylmethyl)-5-[[4-(ethylamino)-1,1-dioxo-1,2,5-thiadiazol-3-yl]amino]-4,5,6,7-tetrahydrobenzothiophene-3-carboxamide], below 1000 nM.
As to `Cc1ccc(NC(=C[N+](=O)[O-])NC2CCc3sc(NC(=O)C4CC4)c(C(=O)NCC4CC4)c3C2)cc1` (stereo not shown) [Example 135, 2-(cyclopropanecarbonylamino)-N-(cyclopropylmethyl)-5-[[1-(4-methylanilino)-2-nitro-vinyl]amino]-4,5,6,7-tetrahydrobenzothiophene-3-carboxamide], the IC50 was below 1000 nM.
Next, `CCNC(=NC#N)N(C)[C@H]1CCc2sc(NC(=O)C3CC3)c(C(=O)NCC3CC3)c2C1` [Example 136, (5S)-5-[(N′-cyano-N-ethyl-carbamimidoyl)-methyl-amino]-2-(cyclopropanecarbonylamino)-N-(cyclopropylmethyl)-4,5,6,7-tetrahydrobenzothiophene-3-carboxamide]: below 1000 nM; `Cc1ccc(Nc2c(NC3CCc4sc(NC(=O)C5CC5)c(C(=O)NCC5CC5)c4C3)c(=O)c2=O)cc1` (stereo not shown) [Example 137, 2-(Cyclopropanecarbonylamino)-N-(cyclopropylmethyl)-5-[[2-(4-methylanilino)-3,4-dioxo-cyclobuten-1-yl]amino]-4,5,6,7-tetrahydrobenzothiophene-3-carboxamide]: below 1000 nM.
As to `O=C(NCC1CC1)c1c(NC(=O)C2CC2)sc2c1C[C@@H](n1cnnc1Nc1ccccn1)CC2` [Example 138, (5S)-2-(Cyclopropanecarbonylamino)-N-(cyclopropylmethyl)-5-[3-(2-pyridylamino)-1,2,4-triazo-4-yl]-4,5,6,7-tetrahydrobenzothiophene-3-carboxamide], the IC50 is below 1000 nM.
Next, `CC(=O)Nc1nccn1[C@H]1CCc2sc(NC(=O)C3CC3)c(C(=O)NCC3CC3)c2C1` [Example 139, (5S)-5-(2-Acetamidoimidazol-1-yl)-2-(cyclopropanecarbonylamino)-N-(cyclopropylmethyl)-4,5,6,7-tetrahydrobenzothiophene-3-carboxamide]: below 1000 nM; `O=C(NCC1CC1)c1c(NC(=O)C2CC2)sc2c1CC(n1nncc1Nc1cccnc1)CC2` (stereo not shown) [Example 141, 2-(Cyclopropanecarbonylamino)-N-(cyclopropylmethyl)-5-[5-(3-pyridylamino)triazo-1-yl]-4,5,6,7-tetrahydrobenzothiophene-3-carboxamide]: below 1000 nM.
Next, `CCNC(=S)NC1CCc2sc(NC(=O)C3CC3)c(C(=O)NCC3CC3)c2C1` (stereo not shown) [Example 142, 2-(Cyclopropanecarbonylamino)-N-(cyclopropylmethyl)-5-(ethylcarbamothioylamino)-4,5,6,7-tetrahydrobenzothiophene-3-carboxamide]: below 1000 nM; `O=C(NCC1CC1)c1c(NC(=O)C2CC2)sc2c1C[C@@H](n1cnnc1N[C@H]1CCOC1)CC2` [Example 143, (5S)-2-(cyclopropanecarbonylamino)-N-(cyclopropylmethyl)-5-[3-[[(3S)-tetrahydrofuran-3-yl]amino]-1,2,4-triazol-4-yl]-4,5,6,7-tetrahydrobenzothiophene-3-carboxamide]: below 1000 nM; `CCNC(=NC#N)NC1CCc2sc(NC(=O)C3CC3)c(C(=O)NCC3CC3)c2C1` (stereo not shown) [Example 144, 5-[[N′-Cyano-N-ethyl-carbamimidoyl]amino]-2-(cyclopropanecarbonylamino)-N-(cyclopropylmethyl)-4,5,6,7-tetrahydrobenzothiophene-3-carboxamide]: below 1000 nM.
Next, `CCN/C(=N\[N+](=O)[O-])N[C@H]1CCc2sc(NC(=O)C3CC3)c(C(=O)NCC3CC3)c2C1` [Example 145, (5S)-2-(Cyclopropanecarbonylamino)-N-(cyclopropylmethyl)-5-[[(E)-N-ethyl-N′-nitro-carbamimidoyl]amino]-4,5,6,7-tetrahydrobenzothiophene-3-carboxamide]: below 1000 nM.
With `CCN/C(=N\[N+](=O)[O-])N[C@@H]1CCc2sc(NC(=O)C3CC3)c(C(=O)NCC3CC3)c2C1` [Example 146, (5R)-2-(Cyclopropanecarbonylamino)-N-(cyclopropylmethyl)-5-[[(E)-N-ethyl-N′-nitro-carbamimidoyl]amino]-4,5,6,7-tetrahydrobenzothiophene-3-carboxamide], the IC50 lay in the range of 10000 to 50000 nM.
Next, `CCNc1nccn1[C@H]1CCc2sc(NC(=O)C3CC3)c(C(=O)NCC3CC3)c2C1` [Example 147, (5S)-2-(Cyclopropanecarbonylamino)-N-(cyclopropylmethyl)-5-[2-(ethylamino)imidazol-1-yl]-4,5,6,7-tetrahydrobenzothiophene-3-carboxamide]: below 1000 nM; `Cc1noc(C)c1Nc1nncn1[C@H]1CCc2sc(NC(=O)C3CC3)c(C(=O)NCC3CC3)c2C1` [Example 148, (5S)-2-(Cyclopropanecarbonylamino)-N-(cyclopropylmethyl)-5-[3-[(3,5-dimethylisoxazol-4-yl)amino]-1,2,4-triazol-4-yl]-4,5,6,7-tetrahydrobenzothiophene-3-carboxamide]: below 1000 nM.
